The compounds below were run against IDH1 R132H (Homo sapiens, UniProt O75874, R132H) (assay: In vitro assay for IDH1 R132H inhibitors (NADPH/aKG, resazurin detection)). Details: Table 4A; 0.2 μg/ml IDH1 R132H, 50 minutes at room temperature; read-out: IC50 (uM), IDH1 R132H Inhibition.
Assay type: biochemical
In short: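 Reaction ran 50 min at room temperature in Tris pH 7.5 buffer with 150 mM NaCl, 10 mM MgCl2 and 0.03% BSA. Mix concentrations were 0.2 μg/ml mutant enzyme, 8 uM NADPH and 2 mM aKG. Detection added 30 μM resazurin, with resorufin fluorescence (Ex544/Em590) measured 5 min later.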

Sequence of IDH1 R132H (O75874 whole entry R132H): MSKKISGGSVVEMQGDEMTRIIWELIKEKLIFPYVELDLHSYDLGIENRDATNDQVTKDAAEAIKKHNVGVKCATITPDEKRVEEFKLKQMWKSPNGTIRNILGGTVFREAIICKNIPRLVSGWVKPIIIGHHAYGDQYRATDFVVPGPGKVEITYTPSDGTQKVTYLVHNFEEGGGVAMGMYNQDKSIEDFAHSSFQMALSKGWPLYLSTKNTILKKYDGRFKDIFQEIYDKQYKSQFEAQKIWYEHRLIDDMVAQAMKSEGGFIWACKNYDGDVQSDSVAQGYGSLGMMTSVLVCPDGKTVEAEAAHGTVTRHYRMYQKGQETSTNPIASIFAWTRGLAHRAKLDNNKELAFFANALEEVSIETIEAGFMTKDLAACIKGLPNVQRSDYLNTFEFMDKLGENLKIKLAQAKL

IC50	Compound
1 to 10 µM	Cc1ccc(N(C(=O)c2sc(C)nc2C)C(C(=O)NC2CCCC2)c2ccccc2)cc1 (centres unmarked) [Compound 9]
1 to 10 µM	Cc1ccccc1C(C(=O)NC1CCCCC1)N(C(=O)c1ccccn1)c1ccccc1F (centres unmarked) [Compound 59]
0.1 to 1 µM	Cc1ccccc1C(C(=O)NC1CCCCC1)N(C(=O)Cc1cccs1)c1ccc2c(c1)OCO2 (centres unmarked) [Compound 101]
0.1 to 1 µM	O=C(NC1CCCCC1)C(c1ccc(F)cc1)N(C(=O)Cc1cccs1)c1cccc(F)c1 (centres unmarked) [Compound 50]
10 to 100 µM	O=C(Cc1cccs1)N(c1cccc(F)c1)C1(C(=O)NC2CCCC2)CCCC1 [Compound 23]
0.1 to 1 µM	O=C(NC1CCCCC1)C(c1ccccc1)N(C(=O)Cc1cccs1)c1cccc(F)c1 (centres unmarked) [Compound 30]
≥ 100 µM	O=C(NC1CCCC1)C(c1ccc(C(F)(F)F)cc1)N(C(=O)Cc1cccs1)c1cccc(F)c1 (centres unmarked) [Compound 27]
1 to 10 µM	COCOc1ccc(C(C(=O)NC2CCCCC2)N(C(=O)Cc2cccs2)c2cccc(F)c2)cc1 (centres unmarked) [Compound 85]
0.1 to 1 µM	COc1cccc(N(C(=O)Cc2cccs2)C(C(=O)NC2CCCC2)c2ccccc2Cl)c1 (centres unmarked) [Compound 3]
1 to 10 µM	Cc1ccccc1C(C(=O)NC1CCCCC1)N(C(=O)Cc1cccs1)C1CCCC1 (centres unmarked) [Compound 70]
≥ 100 µM	CC(C)(C(=O)NC1CCCC1)N(C(=O)Cc1cccs1)c1cccc(F)c1 [Compound 21]
0.1 to 1 µM	O=C(NC1CCCCC1)C(c1cccc(O)c1)N(C(=O)Cc1cccs1)c1cccc(F)c1 (centres unmarked) [Compound 91]
≥ 100 µM	CCOc1cc(C(C(=O)NC2CCCCC2)N(C(=O)Cc2cccs2)c2cccc(F)c2)ccc1OC (centres unmarked) [Compound 52]
0.1 to 1 µM	Cc1ccccc1N(C(=O)Cc1cccs1)C(C(=O)NC1CCCCC1)c1cccc(F)c1 (centres unmarked) [Compound 13]
1 to 10 µM	O=C(NC1CCCCC1)C(C1CCCCC1)N(C(=O)Cc1cccs1)c1cccc(F)c1 (centres unmarked) [Compound 63]
0.1 to 1 µM	O=C(NC1CCCC1)C(c1ccccc1F)N(C(=O)Cc1cccs1)c1cccc(F)c1 (centres unmarked) [Compound 43]
0.1 to 1 µM	Cc1ccccc1C(C(=O)NC1CCCCC1)N(C(=O)CNS(=O)(=O)c1ccccc1)c1cccc(F)c1 (centres unmarked) [Compound 29]

IC50	Compound
0.1 to 1 µM	Cc1ccc(C(C(=O)NC2CCCCC2)N(C(=O)Cc2cccs2)c2cccc(F)c2)cc1 (centres unmarked) [Compound 78]
1 to 10 µM	Cc1ccccc1C(C(=O)NC1CCCC1)N(C(=O)CCl)c1ccccc1F (centres unmarked) [Compound 75]
≥ 100 µM	Cc1ccccc1C(C(=O)NC1CCCCC1)N(C(=O)Cc1cccs1)C(C)(C)C (centres unmarked) [Compound 69]
0.1 to 1 µM	CCc1ccccc1C(C(=O)NC1CCCCC1)N(C(=O)Cc1cccs1)c1cccc(F)c1 (centres unmarked) [Compound 65]
≤ 0.1 µM	O=C(NC1CCCCC1)C(c1ccccc1Cl)N(C(=O)Cc1cccs1)c1cccc(F)c1 (centres unmarked) [Compound 31]
1 to 10 µM	O=C(NC1CCCCC1)C(c1ccncc1)N(C(=O)Cc1cccs1)c1cccc(F)c1 (centres unmarked) [Compound 76]
≥ 100 µM	COc1ccc(C(C(=O)NC2CCCCC2)N(C(=O)Cc2cccs2)c2cccc(F)c2)cc1 (centres unmarked) [Compound 77]
0.1 to 1 µM	O=C(NC1CCCCC1)C(c1ccccc1F)N(C(=O)CNS(=O)(=O)c1ccccc1)c1ccccc1F (centres unmarked) [Compound 10]
1 to 10 µM	Cc1ccccc1C(C(=O)NC1CCCCC1)N(C(=O)Cc1cccs1)c1cccc(Cl)c1Cl (centres unmarked) [Compound 97]
1 to 10 µM	O=C(NC1CCCCC1)C(c1ccccn1)N(C(=O)Cc1cccs1)c1cccc(F)c1 (centres unmarked) [Compound 81]
≥ 100 µM	N#Cc1ccc(C(C(=O)NC2CCCC2)N(C(=O)Cc2cccs2)c2cccc(F)c2)cc1 (centres unmarked) [Compound 25]
0.1 to 1 µM	Cc1ccccc1C(C(=O)NC1CCCC1)N(C(=O)CNS(=O)(=O)c1ccccc1)c1cccc(F)c1 (centres unmarked) [Compound 28]
0.1 to 1 µM	O=C(NC1CCCC1)C(c1ccccc1)N(C(=O)Cc1cccs1)c1ccccc1 (centres unmarked) [Compound 17]
1 to 10 µM	O=C(NC1CCCCC1)C(c1ccccc1Cl)N(C(=O)c1ccccn1)c1ccccc1F (centres unmarked) [Compound 57]
≤ 0.1 µM	Cc1ccccc1C(C(=O)NC1CCCCCC1)N(C(=O)Cc1cccs1)c1cccc(F)c1 (centres unmarked) [Compound 80]
0.1 to 1 µM	O=C(NC1CCCC1)C(c1ccccc1F)N(C(=O)Cc1cccs1)c1ccccc1F (centres unmarked) [Compound 47]

Same assay, conditions: Table 4B; 0.2 μg/ml IDH1 R132H, 50 minutes at room temperature; read-out: IC50, IDH1 R132H Inhibition

IC50	Compound
0.1 to 1 µM	Cc1ccccc1C(C(=O)NC1CCCCC1)N(C(=O)CNC1CCCCC1O)c1cccc(F)c1 (centres unmarked) [Compound 180]
0.1 to 1 µM	CCC(=O)N1CCCC[C@H]1C(=O)N(c1cccc(F)c1)[C@H](C(=O)NC1CCCCC1)c1ccccc1C [Compound 350]
0.1 to 1 µM	Cc1ccccc1[C@@H](C(=O)NC1CCCCC1)N(C(=O)[C@@H]1CCCCN1S(C)(=O)=O)c1cccc(F)c1 [Compound 349]
0.1 to 1 µM	Cc1ccccc1C(C(=O)NC1CCCCC1)N(C(=O)CCNC(=O)OC(C)(C)C)c1cccc(F)c1 (centres unmarked) [Compound 369]
0.1 to 1 µM	Cc1ccccc1C(C(=O)NC1CCCCC1)N(C(=O)CNc1cccc(F)c1)c1cccc(F)c1 (centres unmarked) [Compound 133]
0.1 to 1 µM	Cc1ccccc1[C@@H](C(=O)NC1CCCCC1)N(C(=O)[C@H]1CCCCN1)c1cccc(F)c1 [Compound 337]
0.1 to 1 µM	N#Cc1ncn(CC(=O)N(c2cccc(F)c2)C(C(=O)NC2CCCCC2)c2ccccc2Cl)c1C#N (centres unmarked) [Compound 384]
0.1 to 1 µM	COC(=O)NCC(=O)N(Cc1cccs1)C(C(=O)NC1CCCCC1)c1ccccc1C (centres unmarked) [Compound 372]
0.1 to 1 µM	Cc1ccccc1C(C(=O)NC1CCCCC1)N(Cc1cccs1)C(=O)Cn1nnc2ccccc21 (centres unmarked) [Compound 157]
0.1 to 1 µM	Cc1ccccc1C(C(=O)NC1CCCCC1)N(C(=O)Cc1cccs1)c1cccnc1 (centres unmarked) [Compound 111]
0.1 to 1 µM	O=C(NC1CCCCC1)C(c1cc(F)ccc1Br)N(C(=O)Cc1cccs1)c1cccc(F)c1 (centres unmarked) [Compound 129]
0.1 to 1 µM	O=C(NC1CCCCC1)C(c1ccccc1Cl)N(C(=O)c1cc2ccccc2[nH]1)c1cccc(F)c1 (centres unmarked) [Compound 382]
0.1 to 1 µM	Cc1ccccc1C(C(=O)NC1CCCCC1)N(C(=O)Cc1cccs1)c1cccc(C(F)(F)F)c1 (centres unmarked) [Compound 122]
0.1 to 1 µM	CCC(=O)Nc1cccc(N(C(=O)Cc2cccs2)C(C(=O)NC2CCCCC2)c2ccccc2C)c1 (centres unmarked) [Compound 112]
≤ 0.1 µM	CCOC(=O)N1CCCC[C@H]1C(=O)N(c1cccc(F)c1)[C@H](C(=O)NC1CCCCC1)c1ccccc1C [Compound 348]
0.1 to 1 µM	Cc1ccccc1[C@@H](C(=O)NC1CCCCC1)N(C(=O)[C@H]1CCCN1)c1cccc(F)c1 [Compound 376]

IC50	Compound
0.1 to 1 µM	O=C(NC1CCCCC1)C(c1ccccc1C(F)(F)F)N(C(=O)Cc1cccs1)c1cccc(F)c1 (centres unmarked) [Compound 108]
0.1 to 1 µM	COc1ccc(F)c(C(C(=O)NC2CCCCC2)N(C(=O)Cc2cccs2)c2cccc(F)c2)c1 (centres unmarked) [Compound 128]
0.1 to 1 µM	O=C(NC1CCCCC1)C(c1cc(F)c(F)cc1F)N(C(=O)Cc1cccs1)c1cccc(F)c1 (centres unmarked) [Compound 106]
0.1 to 1 µM	Cc1ccc(N(C(=O)Cc2cccs2)C(C(=O)NC2CCCCC2)c2ccccc2C)cc1Cl (centres unmarked) [Compound 117]
0.1 to 1 µM	Cc1ccccc1C(C(=O)NC1CCCCC1)N(C(=O)Cc1cccs1)c1ccc2c(c1)OCCO2 (centres unmarked) [Compound 149]
0.1 to 1 µM	Cc1ccccc1C(C(=O)NC1CCCCC1)N(C(=O)c1cccs1)c1cccc(F)c1 (centres unmarked) [Compound 138]
0.1 to 1 µM	Cc1ccccc1C(C(=O)NC1CCCCC1)N(C(=O)OCc1ccccc1)c1ccccc1 (centres unmarked) [Compound 391]
0.1 to 1 µM	Cc1ccccc1C(C(=O)NC1CCCCC1)N(C(=O)Cc1cccs1)c1ccc(F)cc1 (centres unmarked) [Compound 145]
≤ 0.1 µM	Cc1ccccc1C(C(=O)NC1CCCCC1)N(C(=O)Cc1ccsc1)c1cccc(F)c1 (centres unmarked) [Compound 150]
0.1 to 1 µM	COC(=O)NCC(=O)N(c1ccc(F)cc1)C(C(=O)NC1CCCCC1)c1ccccc1C (centres unmarked) [Compound 353]
0.1 to 1 µM	CNC(=O)N1CCCC[C@@H]1C(=O)N(c1cccc(F)c1)[C@H](C(=O)NC1CCCCC1)c1ccccc1C [Compound 364]
0.1 to 1 µM	Cc1ccccc1[C@@H](C(=O)NC1CCCCC1)N(C(=O)[C@@H]1CCCN1C(=O)OC(C)(C)C)c1cccc(F)c1 [Compound 343]
0.1 to 1 µM	Cc1ccccc1C(C(=O)NC1CCCCC1)N(C(=O)CNC1CC1)c1cccc(F)c1 (centres unmarked) [Compound 119]
0.1 to 1 µM	Cc1ccc(N(C(=O)Cc2cccs2)C(C(=O)NC2CCCCC2)c2ccccc2C)cc1 (centres unmarked) [Compound 144]
0.1 to 1 µM	COc1cccc(N(C(=O)Cc2cccs2)C(C(=O)NC2CCCCC2)c2ccccc2C)c1 (centres unmarked) [Compound 124]
≤ 0.1 µM	COC(=O)N1CCOC[C@H]1C(=O)N(c1cccc(F)c1)[C@H](C(=O)NC1CCCCC1)c1ccccc1C [Compound 385]

Compound	IC50
Cc1ccccc1C(C(=O)NC1CCCCC1)N(C(=O)Oc1ccccc1)c1ccccc1 (centres unmarked) [Compound 392]	0.1 to 1 µM

These compounds were tested on U87MG cells (assay: Cellular assay: inhibition of 2-HG production in U87MG cells (LC-MS, 48 hours)). Details: Homo sapiens, U-87 MG, 2-HG in media by LC-MS.
Assay type: cell-based
Procedure: Cells (HT1080 or U87MG) were grown in T125 flasks in DMEM containing 10% FBS, 1× penicillin/streptomycin and 500 ug/mL G418 (present in U87MG cells only). They were harvested by trypsin and seeded into 96 well white bottom plates at a density of 5000 cell/well in 100 ul/well in DMEM with 10% FBS. No cells were placed in columns 1 and 12. Cells were incubated overnight at 37° C. in 5% CO2. The next day test compounds were made up at 2× the final concentration and 100 ul were added to each cell well. The final concentration of DMSO was 0.2% and the DMSO control wells were plated in row G. The plates were then placed in the incubator for 48 hours. At 48 hours, 100 ul of media was removed from each well and analyzed by LC-MS for 2-HG concentrations. The cell plate was placed back in the incubator for another 24 hours. At 72 hours post compound addition, 10 mL/plate of Promega Cell Titer Glo reagent was thawed and mixed. The cell plate was removed from the incubator and allowed to equilibrate to room temperature. Then 100 ul of Promega Cell Titer Glo reagent was added to each well of media. The cell plate was then placed on an orbital shaker for 10 minutes and then allowed to sit at room temperature for 20 minutes. The plate was then read for luminescence with an integration time of 500 ms.

IC50	Compound
1000 to 5000 nM	Cc1ccccc1C(C(=O)NC1CCCCC1)N(C(=O)CNC1CCCCC1O)c1cccc(F)c1 (centres unmarked) [Compound 180]
1000 to 5000 nM	CCC(=O)N1CCCC[C@H]1C(=O)N(c1cccc(F)c1)[C@H](C(=O)NC1CCCCC1)c1ccccc1C [Compound 350]

Source: patent publication US20130184222A1, “[…] ACTIVE COMPOSITIONS AND THEIR METHODS OF USE” (AGIOS PHARMACEUTICALS, INC, priority 2010, published 2013)
